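The compound was tested at five concentrations on cells cultured in 96-well plates, with a 48-hour exposure period. Abbreviation: GI50, concentration required for 50% inhibition of growth.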 Activity calls are given as the source filed them. No stated cut-off is given here; in the data, active = GI50 up to about 1.1 µM and inactive = higher.
How the values were obtained:
Test in all cases: NCI anticancer screen, dose series, 48 h
786-0 = test system: 786-0
A498 = test system: A498
A549 = test system: A549
ACHN = test system: ACHN
CAKI-1 = test system: CAKI-1
CCRF-CEM = test system: CCRF-CEM
COLO 205 = test system: COLO 205
DLD-1 = test system: DLD-1
DMS-114 = test system: DMS-114
DMS-273 = test system: DMS-273
EKVX = test system: EKVX
HCC 2998 = test system: HCC 2998
HCT-116 = test system: HCT-116
HCT-15 = test system: HCT-15
HL-60 = test system: HL-60
HOP-18 = test system: HOP-18
HOP-62 = test system: HOP-62
HOP-92 = test system: HOP-92
HT-29 = test system: HT-29
IGROV-1 = test system: IGROV-1
K562 = test system: K562
KM-20L2 = test system: KM-20L2
KM12 = test system: KM12
LOX IMVI = test system: LOX IMVI
M14 = test system: M14
M19-MEL = test system: M19-MEL
MOLT-4 = test system: MOLT-4
Malme-3M = test system: Malme-3M
NCI-H226 = test system: NCI-H226
NCI-H23 = test system: NCI-H23
NCI-H460 = test system: NCI-H460
NCI-H522 = test system: NCI-H522
OVCAR-3 = test system: OVCAR-3
OVCAR-4 = test system: OVCAR-4
OVCAR-5 = test system: OVCAR-5
OVCAR-8 = test system: OVCAR-8
RPMI-8226 = test system: RPMI-8226
RXF 393 = test system: RXF 393
RXF 631 = test system: RXF 631
SF-268 = test system: SF-268
SF-295 = test system: SF-295
SF-539 = test system: SF-539
SK-MEL-2 = test system: SK-MEL-2
SK-MEL-5 = test system: SK-MEL-5
SK-OV-3 = test system: SK-OV-3
SN12C = test system: SN12C
SNB-19 = test system: SNB-19
SNB-75 = test system: SNB-75
SNB-78 = test system: SNB-78
SR = test system: SR
SW-620 = test system: SW-620
TK-10 = test system: TK-10
U-251 = test system: U-251
UACC-257 = test system: UACC-257
UACC-62 = test system: UACC-62
UO-31 = test system: UO-31
XF498 = test system: XF498

With `CN1CCN(C)C12C=CC=CC21CC1` the GI50 (786-0) was > 100 µM (inactive), the GI50 (A498) was > 100 µM (inactive) and the GI50 (A549) was > 100 µM (inactive). For the same compound, the GI50 (ACHN) was > 100 µM (inactive), the GI50 (CAKI-1) was > 100 µM (inactive) and the GI50 (CCRF-CEM) was > 100 µM (inactive). For the same compound, the GI50 (COLO 205) was > 100 µM (inactive), the GI50 (DLD-1) was > 100 µM (inactive) and the GI50 (DMS-114) was > 100 µM (inactive). The GI50 (DMS-273) was > 100 µM (inactive), the GI50 (EKVX) was > 100 µM (inactive) and the GI50 (HCC 2998) was > 100 µM (inactive). The GI50 (HCT-116) was > 100 µM (inactive), the GI50 (HCT-15) was greater than 100 µM and the GI50 (HL-60) was > 100 µM (inactive). For the same compound, the GI50 (HOP-18) was > 100 µM (inactive), the GI50 (HOP-62) was > 100 µM (inactive) and the GI50 (HOP-92) was 58.9 µM (inactive). The GI50 (HT-29) was > 100 µM (inactive), the GI50 (IGROV-1) was > 100 µM (inactive) and the GI50 (K562) was > 100 µM (inactive). The GI50 (KM-20L2) was > 100 µM (inactive), the GI50 (KM12) was > 100 µM (inactive) and the GI50 (LOX IMVI) was > 100 µM (inactive). For the same compound, the GI50 (M14) was > 100 µM (inactive), the GI50 (M19-MEL) was > 100 µM (inactive) and the GI50 (MOLT-4) was > 100 µM (inactive). The GI50 (Malme-3M) was > 100 µM (inactive), the GI50 (NCI-H226) was > 100 µM (inactive) and the GI50 (NCI-H23) was > 100 µM (inactive). The GI50 (NCI-H460) was > 100 µM (inactive), the GI50 (NCI-H522) was > 100 µM (inactive) and the GI50 (OVCAR-3) was > 100 µM (inactive). The GI50 (OVCAR-4) was > 100 µM (inactive), the GI50 (OVCAR-5) was > 100 µM (inactive) and the GI50 (OVCAR-8) was > 100 µM (inactive). For the same compound, the GI50 (RPMI-8226) was > 100 µM (inactive), the GI50 (RXF 393) was > 100 µM (inactive) and the GI50 (RXF 631) was > 100 µM (inactive). The GI50 (SF-268) was > 100 µM (inactive), the GI50 (SF-295) was > 100 µM (inactive) and the GI50 (SF-539) was > 100 µM (inactive). For the same compound, the GI50 (SK-MEL-2) was > 100 µM (inactive), the GI50 (SK-MEL-5) was > 100 µM (inactive) and the GI50 (SK-OV-3) was > 100 µM (inactive). The GI50 (SN12C) was > 100 µM (inactive), the GI50 (SNB-19) was > 100 µM (inactive) and the GI50 (SNB-75) was > 100 µM (inactive). The GI50 (SNB-78) was > 100 µM (inactive), the GI50 (SR) was > 100 µM (inactive) and the GI50 (SW-620) was > 100 µM (inactive). The GI50 (TK-10) was > 100 µM (inactive), the GI50 (U-251) was > 100 µM (inactive) and the GI50 (UACC-257) was > 100 µM (inactive). The GI50 (UACC-62) was > 100 µM (inactive), the GI50 (UO-31) was > 100 µM (inactive) and the GI50 (XF498) was > 100 µM (inactive).

Source: ChEMBL document CHEMBL1201862, “PubChem BioAssay data set” (2004)
